pEC50: −log10 of the molar value. Some results are limits rather than exact numbers.

One assay has as its target T1, Regulator of G-protein signaling 7 (Homo sapiens, UniProt P49802).
T1 sequence (P49802 whole entry): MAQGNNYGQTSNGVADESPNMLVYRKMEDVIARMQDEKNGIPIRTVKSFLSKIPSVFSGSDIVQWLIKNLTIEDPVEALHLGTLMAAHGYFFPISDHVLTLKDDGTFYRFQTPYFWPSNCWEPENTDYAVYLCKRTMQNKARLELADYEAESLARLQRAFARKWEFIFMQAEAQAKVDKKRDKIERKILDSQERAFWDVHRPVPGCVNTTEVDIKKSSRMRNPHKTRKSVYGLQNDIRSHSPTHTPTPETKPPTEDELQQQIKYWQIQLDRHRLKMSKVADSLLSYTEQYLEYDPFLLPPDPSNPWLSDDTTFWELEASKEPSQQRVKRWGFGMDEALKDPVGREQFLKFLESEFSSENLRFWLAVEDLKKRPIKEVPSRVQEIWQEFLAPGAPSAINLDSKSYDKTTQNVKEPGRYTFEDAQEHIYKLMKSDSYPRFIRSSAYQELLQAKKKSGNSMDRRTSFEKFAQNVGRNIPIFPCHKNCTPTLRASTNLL
Nature of the assay: RGS7-Galphao binding modulators, SAR follow-up, biochemical, multiplexed bead flow cytometry, SAR compounds (AID 2296).
Details: not given
In general terms: In flow cytometry, cells or beads pass a laser one at a time.
The term pEC50 denotes −log10 of the EC50, conventionally taken in molar units. A lower pEC50 goes with a high EC50. For the compound `CN1CCN(C2=C(Cl)C(=O)C(c3cnc(N4CCCCC4)s3)=C(Cl)C2=O)CC1`, the pEC50 is 7.06.
In the case of `CCN=c1scc(C)n1N=Cc1ccc(O)c(O)c1O`, the pEC50 was 6.35.
Same read-out and setting: as for `CCN(CC)S(=O)(=O)c1cccc(C(=O)NN=Cc2ccc(O)c(O)c2O)c1`, the figure is 6.42; as for `Cc1[nH]n(-c2ccccc2)c(=S)c1C=NCCCN=Cc1c(C)[nH]n(-c2ccccc2)c1=S`, 5.66.
`Cc1cccc(N2CCN(C(=O)COc3nsc4nc(C)cc(C)c34)CC2C)c1` (stereo unspecified): the pEC50 was below 4.52.
`Cc1cccc(N2CCN(C(=O)Cn3ccc4nc(C)cc(C)c4c3=O)CC2C)c1` (stereo unspecified) [2,4-dimethyl-6-[2-[3-methyl-4-(3-methylphenyl)piperazin-1-yl]-2-oxidanylidene-ethyl]-1,6-naphthyridin-5-one] showed a pEC50 below 4.52.
Compound `Cc1cc(C)c2c(=O)n(CC(=O)N3CCN(c4ccccc4)CC3)ccc2n1` [2,4-dimethyl-6-[2-oxidanylidene-2-(4-phenylpiperazin-1-yl)ethyl]-1,6-naphthyridin-5-one] showed a pEC50 of 7.17.
On the same count and under the same terms, the value for `Cc1cc(C)c2c(n1)CCN(CC(=O)N1CCN(c3ccccc3)CC1)C2=O` [2,4-dimethyl-6-[2-oxidanylidene-2-(4-phenylpiperazin-1-yl)ethyl]-7,8-dihydro-1,6-naphthyridin-5-one] was below 4.52; that for `O=c1c2ccccc2sn1-c1ccc(S(=O)(=O)N2CCCC2)cc1` [2-(4-pyrrolidin-1-ylsulfonylphenyl)-1,2-benzothiazol-3-one] was below 4.52.
Compound `Cc1cccc(N2CCN(C(=O)Cn3sc4nc(C)cc(C)c4c3=O)CC2C)c1` (stereo unspecified) [2-[2-keto-2-[3-methyl-4-(m-tolyl)piperazino]ethyl]-4,6-dimethyl-isothiazolo[5,4-b]pyridin-3-one] had a pEC50 below 4.52.
Same read-out and setting: the value for `Cc1cccc(N2CCN(C(=O)COc3noc4nc(C)cc(C)c34)CC2C)c1` (stereo unspecified) [2-[(4,6-dimethyl-[1,2]oxazolo[5,4-b]pyridin-3-yl)oxy]-1-[3-methyl-4-(3-methylphenyl)piperazin-1-yl]ethanone] was below 4.52.
Still for that read-out and setting: as for `O=c1c2ccccc2sn1-c1ccccc1` [2-phenyl-1,2-benzothiazol-3-one], the figure is below 4.52.
Same read-out and setting: as for `CC(NC(=O)c1sc2cc([N+](=O)[O-])ccc2c1Cl)C(C)(C)C` (stereo unspecified) [3-chloranyl-N-(3,3-dimethylbutan-2-yl)-6-nitro-1-benzothiophene-2-carboxamide], the figure is below 4.52; as for `O=C(NCCCN1CCOCC1)c1sc2cc([N+](=O)[O-])ccc2c1Cl` [3-chloranyl-N-(3-morpholin-4-ylpropyl)-6-nitro-1-benzothiophene-2-carboxamide], below 4.52.
With `COC(=O)CCC(=O)Nc1sc(C)c(C)c1C(N)=O` [4-[(3-carbamoyl-4,5-dimethyl-2-thienyl)amino]-4-keto-butyric acid methyl ester], the pEC50 was below 4.52.
`CCN(CC)S(=O)(=O)c1cccc(-c2n[nH]c(=S)n2N=Cc2ccc(C(=O)OC)cc2)c1` [4-[(E)-[3-[3-(diethylsulfamoyl)phenyl]-5-thioxo-1H-1,2,4-triazol-4-yl]iminomethyl]benzoic acid methyl ester]: the pEC50 was below 4.52.
As for `NS(=O)(=O)c1ccc(N=NCc2ccc(O)c(O)c2O)c([N+](=O)[O-])c1` [4-[[(E)-(2,3-dihydroxy-4-oxo-1-cyclohexa-2,5-dienylidene)methyl]hydrazo]-3-nitrobenzenesulfonamide], the pEC50 is 6.85.
Turning to `CCOC(=O)c1sc(NC(=O)CSc2nnc(Cc3ccccc3)o2)c(C#N)c1C` [4-cyano-3-methyl-5-[[1-oxo-2-[[5-(phenylmethyl)-1,3,4-oxadiazol-2-yl]thio]ethyl]amino]-2-thiophenecarboxylic acid ethyl ester], the pEC50 was below 4.52.
On the same count and under the same terms, the value for `CN=c1scc(C)n1N=Cc1ccc(O)c(O)c1O` [(4E)-2,3-dihydroxy-4-[[(4-methyl-2-methylimino-1,3-thiazol-3-yl)amino]methylidene]cyclohexa-2,5-dien-1-one] was 6.61; that for `Cc1[nH]n(-c2ccccc2)c(=S)c1/C=N/c1cccc([N+](=O)[O-])c1` [(4E)-5-methyl-4-[(3-nitroanilino)methylene]-2-phenyl-2-pyrazoline-3-thione] was below 4.52; that for `Cc1cccc(N2CCN(C(=O)CN3CCc4nc(C)cc(C)c4C3=O)CC2C)c1` (stereo unspecified) [KUC103675N] was below 4.52.
`CC(=O)OCCCNc1cc(Sc2nc3ccccc3s2)c2nonc2c1[N+](=O)[O-]` [MLS000521052]: the pEC50 is below 4.52.
In the case of `Cc1cc(Cl)ccc1/N=c1/ssnc1Cl` [MLS000539990], the pEC50 is below 4.52.
Compound `O=C1C(Cl)=C(N2CCCCC2)C(=O)C(Cl)=C1c1cnc(N2CCCCC2)s1` [MLS000550549] had a pEC50 of 6.80.
On the same count and under the same terms, as for `CCC(=O)NC(c1ccc(C)cc1)c1cc([N+](=O)[O-])c2cccnc2c1O` (stereo unspecified) [MLS000553854], the figure is 5.36; as for `COc1ccc(C2=CC(=O)C=CC2=O)cc1` [MLS001029846], 6.45; as for `O=C(COc1ccccc1C(=O)NN=Cc1ccc(O)c(O)c1)NN=Cc1ccc(O)c(O)c1` [N''-[(Z)-(3-hydroxy-4-oxo-1-cyclohexa-2,5-dienylidene)methyl]-2-[2-[[(Z)-(3-hydroxy-4-oxo-1-cyclohexa-2,5-dienylidene)methyl]hydrazo]-2-oxoethoxy]benzohydrazide], below 4.52.
Same read-out and setting: as for `CC1(C)OC(=O)C(=Cc2ccc(-c3ccc(S(N)(=O)=O)cc3)o2)C(=O)O1` [SMR000273939], the figure is 5.73; as for `O=C(Cc1csc(N2CCOCC2)n1)NN=Cc1ccc(O)c(O)c1O` [SMR000369439], 6.38; as for `Nc1c(C(=O)NCC2CCCO2)sc2nc3c(c(-c4ccco4)c12)CC/C3=C/c1ccco1` (stereo unspecified) [UNM-0000305796], 6.84.

Staying with this assay, now noted: inactive by the depositor's call.
`CCOc1ccccc1-c1c2cc(O)c(=O)cc-2oc2cc(O)c(O)cc12` [MLS000578271] gave a pEC50 of 5.45.

Source of the values: BindingDB's records for doi:10.7270/Q2416VG3 (Nmmlsc, 2010).
